Test results: PubChem BioAssay AID2060901 (Molecular Pharmacology Branch, DTP, NCI, 2025)
Blank lines part the entries; values can stand above or below the compound they belong to.

Tested on: 422866-222-R5-J1-PDC complex spheroids viability
Experiment: Anticancer human tumor 422866-222-R5-J1-PDC patient-derived pancreatic adenocarcinoma cell line growth inhibition [RAS]
Details: for IC50: curve of first compound; for viability, T/C: stronger effect = lower value
Method in brief: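 Multi-cell-type spheroids: tumor cells plus HUVEC endothelial cells and mesenchymal stem cells. RAS-pathway inhibitors were combined with targeted agents, each dosed in half-log steps down from clinical Cmax, or from 10 microM when Cmax was unknown.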
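Further: spheroids exposed to compounds for 7 days.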
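Wherever viability, T/C is given: 100% = DMSO vehicle control viability.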

IC50 (second compound 0.00316 µM): < 31.6 nM
IC50 (second compound 0.01 µM): < 31.6 nM
IC50 (second compound 0.0316 µM): < 31.6 nM
IC50 (second compound 0.1 µM): < 31.6 nM
IC50 (second compound 0.316 µM): < 31.6 nM
IC50 (second compound 1 µM): < 31.6 nM
Structure (SMILES): CC(C)NCC(C(=O)N1CCN(c2ncnc3c2C(C)CC3O)CC1)c1ccc(Cl)cc1 (stereo not drawn) + C=CC(=O)N1CCN(c2nc(OCC3CCCN3C)nc3c(F)c(-c4nc(N)cc(C)c4C(F)(F)F)c(Cl)cc23)C(C)C1
viability, T/C (second compound 0.00316 µM, first compound 0.0316 µM): 27.2%
viability, T/C (second compound 0.00316 µM, first compound 0.1 µM): 32.1%
viability, T/C (second compound 0.00316 µM, first compound 0.316 µM): 19.7%
viability, T/C (second compound 0.00316 µM, first compound 1 µM): 17%
viability, T/C (second compound 0.00316 µM, first compound 3.16 µM): 16.7%
viability, T/C (second compound 0.00316 µM, first compound 10 µM): 16.7%
viability, T/C (second compound 0.01 µM, first compound 0.0316 µM): 23.3%
viability, T/C (second compound 0.01 µM, first compound 0.1 µM): 24.8%
viability, T/C (second compound 0.01 µM, first compound 0.316 µM): 17.9%
viability, T/C (second compound 0.01 µM, first compound 1 µM): 12.2%
viability, T/C (second compound 0.01 µM, first compound 3.16 µM): 12.6%
viability, T/C (second compound 0.01 µM, first compound 10 µM): 13.3%
viability, T/C (second compound 0.0316 µM, first compound 0.0316 µM): 27.9%
viability, T/C (second compound 0.0316 µM, first compound 0.1 µM): 22%
viability, T/C (second compound 0.0316 µM, first compound 0.316 µM): 14.4%
viability, T/C (second compound 0.0316 µM, first compound 1 µM): 14.9%
viability, T/C (second compound 0.0316 µM, first compound 3.16 µM): 14.2%
viability, T/C (second compound 0.0316 µM, first compound 10 µM): 14.3%
viability, T/C (second compound 0.1 µM, first compound 0.0316 µM): 21.6%
viability, T/C (second compound 0.1 µM, first compound 0.1 µM): 19.2%
viability, T/C (second compound 0.1 µM, first compound 0.316 µM): 15.2%
viability, T/C (second compound 0.1 µM, first compound 1 µM): 12%
viability, T/C (second compound 0.1 µM, first compound 3.16 µM): 13%
viability, T/C (second compound 0.1 µM, first compound 10 µM): 12.8%
viability, T/C (second compound 0.316 µM, first compound 0.0316 µM): 24.1%
viability, T/C (second compound 0.316 µM, first compound 0.1 µM): 16.4%
viability, T/C (second compound 0.316 µM, first compound 0.316 µM): 14.8%
viability, T/C (second compound 0.316 µM, first compound 1 µM): 13.6%
viability, T/C (second compound 0.316 µM, first compound 3.16 µM): 12.7%
viability, T/C (second compound 0.316 µM, first compound 10 µM): 16.6%
viability, T/C (second compound 1 µM, first compound 0.0316 µM): 23.6%
viability, T/C (second compound 1 µM, first compound 0.1 µM): 15.2%
viability, T/C (second compound 1 µM, first compound 0.316 µM): 16.7%
viability, T/C (second compound 1 µM, first compound 1 µM): 12.5%
viability, T/C (second compound 1 µM, first compound 3.16 µM): 13.9%
viability, T/C (second compound 1 µM, first compound 10 µM): 12.6%

Structure (SMILES): Nc1ccn(C2OC(CO)C(O)C2(F)F)c(=O)n1 (stereo not drawn)
viability, T/C (compound 0.00316 µM): 91.2% [middle of 4 runs]
viability, T/C (compound 0.01 µM): 82.8% [middle of 4 runs]
viability, T/C (compound 0.0316 µM): 72.5% [middle of 4 runs]
viability, T/C (compound 0.1 µM): 55% [middle of 4 runs]
viability, T/C (compound 0.316 µM): 42.9% [middle of 4 runs]
viability, T/C (compound 1 µM): 37.8% [middle of 4 runs]
